Laboratory results as given in publication PMC6421115 (The Journal of eukaryotic microbiology, 2018).
Structures can show the parent of a compound that is named as a salt. Where two headings read alike, the source gives them in different places. Marks after values point to notes of the source that are not given here.

Key:
[1] = target: T1, C. parvum hexokinase (CpHK) (Cryptosporidium parvum, UniProt Q5CWT5); experiment: biochemical; type: biochemical; details: for Mode of inhibition of CpHK: inhibitory kinetics; for Selectivity on enzyme: HsHK1 IC50 versus CpHK IC50
[2] = target: T2, human (Homo sapiens) HK-I (HsHK1) (Homo sapiens, UniProt P19367); experiment: HsHK1 inhibition, HK/G6PDH-coupled assay; type: biochemical
T2 sequence (P19367 1-917): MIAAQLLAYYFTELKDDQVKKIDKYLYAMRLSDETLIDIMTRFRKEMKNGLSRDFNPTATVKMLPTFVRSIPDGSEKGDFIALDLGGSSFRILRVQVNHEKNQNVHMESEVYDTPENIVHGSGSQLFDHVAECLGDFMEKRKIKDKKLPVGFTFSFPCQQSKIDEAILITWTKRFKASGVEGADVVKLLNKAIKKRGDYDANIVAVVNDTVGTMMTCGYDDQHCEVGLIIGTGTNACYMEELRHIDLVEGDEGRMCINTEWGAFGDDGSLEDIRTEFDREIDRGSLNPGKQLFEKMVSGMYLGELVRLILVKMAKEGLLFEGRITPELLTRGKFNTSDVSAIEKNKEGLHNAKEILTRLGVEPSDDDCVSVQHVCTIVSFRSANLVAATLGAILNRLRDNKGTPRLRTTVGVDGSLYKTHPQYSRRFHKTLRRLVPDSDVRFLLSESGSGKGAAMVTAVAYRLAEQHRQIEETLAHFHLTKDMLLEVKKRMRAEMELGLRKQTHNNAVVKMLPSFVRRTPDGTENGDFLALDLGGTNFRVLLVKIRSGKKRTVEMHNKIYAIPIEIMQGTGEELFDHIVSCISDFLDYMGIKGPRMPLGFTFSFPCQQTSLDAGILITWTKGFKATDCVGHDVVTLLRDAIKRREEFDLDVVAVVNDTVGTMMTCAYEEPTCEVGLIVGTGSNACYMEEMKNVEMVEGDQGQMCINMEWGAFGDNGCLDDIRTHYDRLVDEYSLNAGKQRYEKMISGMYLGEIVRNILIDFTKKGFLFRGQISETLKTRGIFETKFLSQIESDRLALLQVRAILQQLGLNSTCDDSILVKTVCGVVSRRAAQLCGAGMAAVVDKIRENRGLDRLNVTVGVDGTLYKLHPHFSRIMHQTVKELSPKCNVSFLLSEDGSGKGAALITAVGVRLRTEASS

[3] = test system: C. parvum; experiment: Efficacy against C. parvum growth in vitro in HCT-8 cells, qRT-PCR assay; details: for Safety Interval (TC50/EC50): HCT-8 TC50 / C. parvum EC50
[4] = test system: HCT-8 cells; experiment: Cytotoxicity on host cells, MTT assay
[5] = target: T3, CpHK (Cryptosporidium parvum, UniProt Q5CWT5); experiment: CpHK enzyme parameters towards substrates; type: biochemical
T3 sequence (Q5CWT5 1-518): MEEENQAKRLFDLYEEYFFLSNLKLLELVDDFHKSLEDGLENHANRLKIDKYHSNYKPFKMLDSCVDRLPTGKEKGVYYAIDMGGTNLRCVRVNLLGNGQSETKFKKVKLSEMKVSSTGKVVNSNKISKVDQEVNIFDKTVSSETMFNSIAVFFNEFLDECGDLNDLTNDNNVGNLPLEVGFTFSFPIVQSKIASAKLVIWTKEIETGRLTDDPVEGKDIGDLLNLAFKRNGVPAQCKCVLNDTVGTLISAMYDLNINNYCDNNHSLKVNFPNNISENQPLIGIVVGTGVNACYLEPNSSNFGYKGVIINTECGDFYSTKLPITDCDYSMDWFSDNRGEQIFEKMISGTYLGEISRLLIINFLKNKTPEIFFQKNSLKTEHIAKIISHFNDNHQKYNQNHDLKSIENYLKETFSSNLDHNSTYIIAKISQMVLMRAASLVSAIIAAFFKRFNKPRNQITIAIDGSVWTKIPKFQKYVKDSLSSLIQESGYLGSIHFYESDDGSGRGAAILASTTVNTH

[6] = target: T1, C. parvum hexokinase (CpHK); details: ref Yu et al. 2014, cited from earlier work
[7] = target: T4, HsHK1 (Homo sapiens, UniProt P19367); experiment: HsHK1 enzyme parameters towards substrates; type: biochemical
T4 sequence (P19367 1-917): T2 sequence (P19367 1-917)

[8] = test system: HCT-8 cells; details: host cells; ref Eltahan et al, 2018; cited from earlier work
[9] = test system: C. parvum; details: read-out: Efficacy on C. parvum (EC50); in vitro; ref Eltahan et al, 2018; cited from earlier work
[10] = substrate: O=CC[C@@H](O)[C@H](O)[C@H](O)CO; experiment: CpHK enzyme parameters towards substrates; type: biochemical, Cryptosporidium parvum; details: other: compound as substrate; pH 7.5
[11] = substrate: OC[C@H]1OC(O)[C@H](O)[C@@H](O)[C@@H]1O; experiment: CpHK enzyme parameters towards substrates; type: biochemical, Cryptosporidium parvum; details: other: compound as substrate; pH 7.5
[12] = substrate: O=CC[C@@H](O)[C@H](O)[C@H](O)CO; experiment: purified protein, by the assay type; details: other: compound as substrate, 37 °C, pH 7.5
[13] = substrate: OC[C@H]1OC(O)[C@H](O)[C@@H](O)[C@@H]1O; experiment: HsHK1 enzyme parameters towards substrates; type: biochemical, Homo sapiens; details: other: compound as substrate, 37 °C, pH 7.5
[14] = Cryptosporidium parvum, HCT-8, read-out: Efficacy on C. parvum (EC50)
[15] = Cryptosporidium parvum, HCT-8, 44 h, read-out: In vitro efficacy (EC50)

Molecule: OC[C@H]1OC(O)[C@H](F)[C@@H](O)[C@@H]1O (stereo partly shown) [FDG, fluorodeoxyglucose]
- IC50 ([1]; read-out: Effect on CpHK, IC50): 3700 µM
- IC50 ([2]; read-out: Effect on HsHK1, IC50, 37 °C): 15200 µM
- Safety Interval (TC50/EC50) [3]: > 240
- Safety Interval (TC50/EC50) ([3]; listed as 2FDG): >240
- EC50 ([3]; read-out: In vitro efficacy (EC50), 44 h infection assay): 300 µM

Molecule: C[CH2][Hg][S]c1ccccc1C(=O)[O-].[Na+] [Thimerosal]
- Mode of inhibition of CpHK [1]: mixed model of inhibition
- IC50 ([1]; read-out: Inhibition on CpHK (IC50), 37 °C, 1% DMSO): 2.3 µM
- IC50 ([2]; read-out: Inhibition on HsHK1 (IC50), 37 °C, 1% DMSO): 0.35 µM
- EC50 ([3]; read-out: Efficacy on C. parvum (EC50), in vitro): 1.77 µM
- Cytotoxicity (TC50) ([4]; host cells): 18.5 µM

Molecule: CCCCC(CC)CNC(=N)NC(=N)NCCCCCCNC(=N)NC(=N)NCC(CC)CCCC (stereo not shown) [Alexidine•2HCl, alexidine dihydrochloride]
- IC50 [1]: 22.1 µM
- Selectivity on enzyme [1]: 1.03
- Mode of inhibition of CpHK [1]: noncompetitive inhibitor
- IC50 [2]: 22.7 µM
- EC50 [3, 14]: 8.1 µM
- Cytotoxicity (TC50) ([4]; host cells): 32.6 µM

Molecule: Oc1c(Cl)cc(Cl)c(Cl)c1Cc1c(O)c(Cl)cc(Cl)c1Cl [Hexachlorophene]
- IC50 [1]: 8.8 µM
- Selectivity on enzyme [1]: 0.74
- Mode of inhibition of CpHK [1]: mixed model of inhibition
- IC50 [2]: 6.5 µM
- EC50 [3, 14]: 0.53 µM
- Cytotoxicity (TC50) ([4]; host cells): 100 µM

Molecule: O=CC[C@@H](O)[C@H](O)[C@H](O)COP(=O)(O)O [2DG6P, 2-deoxy-D-glucose-6-phosphate]
- EC50 [3, 15]: 18000 µM
- Safety Interval (TC50/EC50) [3]: >4.0
- Cytotoxicity (TC50) ([4]; 44 h treatment): >72000 µM

Molecule: O=CC[C@@H](O)[C@H](O)[C@H](O)CO [2DG, 2-deoxy-D-glucose]
- Ratio (2DG/glucose) of CpHK Vmax [5]: 0.72
- Ratio (2DG/glucose) of CpHK Km ([5]; fold lower affinity than for glucose): 4.43
- IC50 [1]: 5750 µM
- IC50 ([6]; read-out: CpHK IC50): 5750 µM
- Ki ([6]; read-out: CpHK Ki): 340 µM
- Mode of inhibition of CpHK [6]: competitive inhibitor
- IC50 [2]: 10100 µM
- Ratio (2DG/glucose) of HsHK1 Km [7]: 9.81
- Ratio (2DG/glucose) of HsHK1 Vmax [7]: 1.28
- EC50 [3, 15]: 540 µM
- Safety Interval (TC50/EC50) [3]: 66.7
- Cytotoxicity (TC50) ([4]; 44 h treatment): 36000 µM

Molecule: O=c1c2ccccc2[se]n1-c1ccccc1 [Ebselen, 2-phenyl-1,2-benzisoselenazol-3(2H)-one]
- Cytotoxicity (TC50) [8]: 700 ^* μM
- IC50 [1]: 0.241 µM
- Selectivity on enzyme [1]: 1.10
- Mode of inhibition of CpHK [1]: noncompetitive inhibitor
- Reversibility of CpHK inhibition ([1]; not reversed by up to 50-fold dilution, from 100 to 2 μM): irreversible inhibitor
- EC50 [9]: 165 µM
- IC50 [2]: 0.265 µM

B1: CpHK (Cryptosporidium parvum Iowa II) (protein)
chain: T3 sequence (Q5CWT5 1-518)
- Km [10]: 204 µM
- Vmax [10]: 112 µmol/min
- Km [11]: 46 µM
- Vmax [11]: 155 µmol/min

B2: HsHK1 (Homo sapiens) (protein)
chain: T2 sequence (P19367 1-917)
- Km [12]: 265 µM
- Vmax [12]: 68.4 µmol/min
- Km [13]: 27 µM
- Vmax [13]: 53.3 µmol/min
